These results are taken from patent US9302999B2, “Substituted triazoles as herbicides” (E. I. DU PONT DE NEMOURS AND COMPANY, priority 2012, dated 2016).

Common to all, as to type: in vivo
In experiment [1] the test system is waterhemp (common waterhemp, Amaranthus rudis). Put plainly: Test F pre-/postemergence: waterhemp. The following applies: Preemergence. From the text:
(§1) Seeds of plant species selected from corn (Zea mays), soybean (Glycine max), velvetleaf (Abutilon theophrasti), lambsquarters (Chenopodium album), poinsettia, wild (wild poinsettia, Euphorbia heterophylla), pigweed, palmer (palmer pigweed, Amaranthus palmeri), waterhemp (common waterhemp, Amaranthus rudis), surinam grass (Brachiaria decumbens), crabgrass, Brazil (Brazilian crabgrass, Digitaria horizontalis), panicum, fall (fall panicum Panicum dichotomiflorum), crabgrass, large (large crabgrass, Digitaria sanguinalis), foxtail, giant (giant foxtail, Setaria faberii), foxtail, green (green foxtail Setaria viridis), goosegrass (Eleusine indica), ragweed (common ragweed, Ambrosia elatior), barnyardgrass (Echinochloa crus-galli), sandbur (southern sandbur, Cenchrus echinatus), arrowleaf sida (Sida rhombifolia), ryegrass, Italian (Italian ryegrass, Lolium multiflorum), dayflower, VA (Virginia (VA) dayflower, Commelina virginica), field bindweed (Convolvulus arvensis), cocklebur (common cocklebur, Xanthium strumarium), morningglory (Ipomoea coccinea), nightshade (eastern black nightshade, Solanum ptycanthum), kochia (Kochia scoparia), nutsedge, yellow (yellow nutsedge, Cyperus esculentus), johnsongrass (Sorghum halepense), smartweed (ladysthumb smartweed, Polygonum persicaria), and beggarticks (hairy beggarticks, Bidens pilosa), were planted into a silt loam soil and treated preemergence with test chemicals formulated in a non-phytotoxic solvent mixture which included a surfactant. At the same time, plants selected from these crop and weed species and also pigweed (Amaranthus retroflexus), waterhemp_RES1 (ALS/Triazine resistant common waterhemp, Amaranthus rudis) and waterhemp_RES2 (ALS/HPPD resistant common waterhemp, Amaranthus rudis) were planted in pots containing a planting medium comprising spaghnum peat moss, vermiculite, wetting agent and starter nutrients treated with postemergence applications of some of the test chemicals formulated in the same manner. Plants ranged in height from 2 to 18 cm for postemergence treatments (1- to 4-leaf stage).
(§2) Treated plants and controls were maintained in a greenhouse for 14 to 21 days, after which time all species were compared to controls and visually evaluated. Plant response ratings, summarized in Table E, are based on a scale of 0 to 100 where 0 is no effect and 100 is complete control. A dash (-) response means no test result.

Experiment [2] relates to johnsongrass (Sorghum halepense). Put plainly: Test F pre-/postemergence: johnsongrass. The settings on record: Preemergence.
Description: as §1, §2

Another experiment relates to soybean (Glycine max). The experiment in a line: Test F pre-/postemergence: soybean.
Description: as §1, §2

For experiment [3], the system named is ryegrass, Italian (Italian ryegrass, Lolium multiflorum). Put plainly: Test F pre-/postemergence: ryegrass, Italian.
Description: as §1, §2

Experiment [4] deals with nutsedge, yellow (yellow nutsedge, Cyperus esculentus). The experiment in a line: Test F pre-/postemergence: nutsedge, yellow. The settings on record: Preemergence.
Description: as §1, §2

Experiment [5] deals with field violet (Viola arvensis). Put plainly: Test D pre-/postemergence: field violet. The method in brief:
(§3)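 Applied as a non-phytotoxic solvent formulation with surfactant, compounds were tested preemergence in silt loam and postemergence on seedlings 2 to 18 cm high in peat-vermiculite medium. Evaluation was visual, 0 meaning no effect and 100 complete control, at 14 to 21 days.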

The subject of experiment [6] is barley, winter (winter barley, Hordeum vulgare). Put plainly: Test D pre-/postemergence: barley, winter. The method in brief: as §3
Experiment [7] relates to wheat, spring (spring wheat, Triticum aestivum). Put plainly: Test D pre-/postemergence: wheat, spring. The method in brief:
as §3

Experiment [8] concerns oilseed rape (Brassica napus). The experiment in a line: Test D pre-/postemergence: oilseed rape. The procedure, abridged:
as §3

The subject of experiment [9] is chamomile (scentless chamomile, Matricaria inodora). Put plainly: Test D pre-/postemergence: chamomile. The method in brief:
as §3

[10] abbreviates: 16 g ai/ha, scale 0 to 100, 0 no effect, 100 complete control.
Where [11] appears, read: 31 g ai/ha, scale 0 to 100, 0 no effect, 100 complete control.
Where [12] appears, read: Preemergence, 16 g ai/ha, scale 0 to 100, 0 no effect, 100 complete control.
The mark [13] stands for this setting: Preemergence, 31 g ai/ha, scale 0 to 100, 0 no effect, 100 complete control.
Where [14] appears, read: Preemergence, 125 g ai/ha, scale 0 to 100.
Setting [15] is: Preemergence, 250 g ai/ha, scale 0 to 100.
Where [16] appears, read: Postemergence, 8 g ai/ha, scale 0 to 100.
The mark [17] stands for this setting: Postemergence, 16 g ai/ha, scale 0 to 100.
Where [18] appears, read: Postemergence, 31 g ai/ha, scale 0 to 100.
The mark [19] stands for this setting: Postemergence, 125 g ai/ha, scale 0 to 100.
The mark [20] stands for this setting: Postemergence, 31 g ai/ha, scale 0 to 100 (0 no effect, 100 complete control).
Setting [21] is: Postemergence, 62 g ai/ha, scale 0 to 100 (0 no effect, 100 complete control).
Where [22] appears, read: Postemergence, 125 g ai/ha, scale 0 to 100, 0 no effect, 100 complete control.
[23] abbreviates: Preemergence, 62 g ai/ha, scale 0 to 100.

As to `COc1nn(-c2cccc(F)c2)nc1Cc1ccnc(C(F)(F)F)c1` [Compound 139], the “Plant response rating, Waterhemp” value in experiment [1] (setting [10]) was 70; in [1] (setting [11]), 100; in [1] (125 g ai/ha, scale 0 to 100), 100; in experiment [1] (250 g ai/ha, scale 0 to 100), 100. The “Plant response rating, Johnsongrass” value in experiment [2] (setting [10]) worked out at 0; in [2] (setting [11]) it was 75; in [2] (62 g ai/ha, scale 0 to 100), 90; in experiment [2] (125 g ai/ha, scale 0 to 100) it was 98; in [2] (250 g ai/ha, scale 0 to 100), 100. Moreover, the “Plant response rating, Soybean” value is on record as 0 in the experiment on soybean (Glycine max) (setting [12]), 0 in the experiment with soybean (Glycine max) (setting [13]), 0 in the experiment on soybean (Glycine max) (setting [14]) and 35 in the experiment on soybean (Glycine max) (setting [15]). Also, the “Plant response rating, Ryegrass, Italian” value is reported as 0 in experiment [3] (setting [12]), 5 in experiment [3] (setting [13]), 30 in experiment [3] (setting [14]) and 95 in [3] (setting [15]). The “Plant response rating, Nutsedge, Yellow” value in experiment [4] (setting [10]) worked out at 0; in experiment [4] (setting [11]), 0; in experiment [4] (125 g ai/ha, scale 0 to 100), 0; in experiment [4] (250 g ai/ha, scale 0 to 100), 0.
Take `Cc1nn(-c2ccnc(Cl)c2)nc1Cc1ccnc(C(F)(F)F)c1` [Compound 141]: the “Plant response rating, Soybean” value in the experiment on soybean (Glycine max) (setting [16]) is 50; in the experiment on soybean (Glycine max) (setting [17]), 70; in the experiment on soybean (Glycine max) (setting [18]), 80; with soybean (Glycine max) (setting [19]), 85. Moreover, the “Plant response rating, Ryegrass, Italian” value in [3] (setting [16]) came out at 10; in [3] (setting [17]) it was 10; in experiment [3] (setting [18]), 15; in experiment [3] (Postemergence, 62 g ai/ha, scale 0 to 100) it was 25; in experiment [3] (setting [19]), 40.
On to `Cc1nn(-c2ccc(F)cc2F)nc1Oc1ccnc(C(F)(F)F)c1` [Compound 146], for which the “Plant response rating, Waterhemp” value is recorded as 25 in experiment [1] (setting [10]); 75 in experiment [1] (setting [11]); 100 in [1] (125 g ai/ha, scale 0 to 100); 100 in [1] (250 g ai/ha, scale 0 to 100). In addition, the “Plant response rating, Johnsongrass” value in experiment [2] (setting [10]) came out at 0; in experiment [2] (setting [11]), 50; in [2] (62 g ai/ha, scale 0 to 100), 60; in experiment [2] (125 g ai/ha, scale 0 to 100), 70; in experiment [2] (250 g ai/ha, scale 0 to 100), 100. The “Plant response rating, Soybean” value in the experiment with soybean (Glycine max) (setting [12]), in the experiment on soybean (Glycine max) (setting [13]), in the experiment with soybean (Glycine max) (setting [14]) and in the experiment with soybean (Glycine max) (setting [15]) was 0 each time. In addition, the “Plant response rating, Ryegrass, Italian” value turned out to be 0 in experiment [3] (setting [12]), 10 in [3] (setting [13]), 20 in experiment [3] (setting [14]) and 25 in [3] (setting [15]). Besides, the “Plant response rating, Nutsedge, Yellow” value amounted to 0 in [4] (setting [10]); 0 in experiment [4] (setting [11]); 0 in experiment [4] (125 g ai/ha, scale 0 to 100); 0 in experiment [4] (250 g ai/ha, scale 0 to 100).
As to `CCc1nn(-c2ccc(F)cc2)nc1Cc1ccnc(C(F)(F)F)c1` [Compound 154], the “Plant response rating, Waterhemp” value in experiment [1] (setting [10]) is 50; in [1] (setting [11]), 60; in experiment [1] (125 g ai/ha, scale 0 to 100), 100; in [1] (250 g ai/ha, scale 0 to 100) it was 100. Also, the “Plant response rating, Johnsongrass” value in [2] (setting [10]) is reported as 0; in experiment [2] (setting [11]), 20; in experiment [2] (62 g ai/ha, scale 0 to 100) it was 25; in experiment [2] (125 g ai/ha, scale 0 to 100), 50; in experiment [2] (250 g ai/ha, scale 0 to 100) it was 98. The “Plant response rating, Soybean” value in the experiment on soybean (Glycine max) (setting [12]) came to 0; with soybean (Glycine max) (setting [13]), 0; in the experiment with soybean (Glycine max) (setting [14]) it was 25; with soybean (Glycine max) (setting [15]), 25. The “Plant response rating, Ryegrass, Italian” value is given as 0 in experiment [3] (setting [12]), 0 in [3] (setting [13]), 70 in experiment [3] (setting [14]) and 100 in [3] (setting [15]). The “Plant response rating, Nutsedge, Yellow” value in experiment [4] (setting [10]) is reported as 0; in experiment [4] (setting [11]) it was 0; in experiment [4] (125 g ai/ha, scale 0 to 100) it was 0; in experiment [4] (250 g ai/ha, scale 0 to 100), 0.
Consider `Cc1nn(-c2ccc(F)c(C(F)(F)F)c2)nc1Cc1ccnc(C(F)(F)F)c1` [Compound 156], for which the “Plant response rating: Field Violet” value in experiment [5] (setting [20]), in experiment [5] (setting [21]) and in experiment [5] (setting [22]) was 95 throughout. Further, the “Plant response rating, Field Violet” value was 95 in experiment [5] (setting [17]); 60 in experiment [5] (setting [12]); 95 in [5] (setting [13]); 100 in experiment [5] (setting [23]); 100 in experiment [5] (setting [14]). The “Plant response rating: Barley, Winter” value in experiment [6] (setting [20]) amounted to 20; in [6] (setting [21]), 25; in [6] (setting [22]), 30. In addition, the “Plant response rating, Barley, Winter” value in experiment [6] (setting [17]) came to 10; in experiment [6] (setting [12]), 5; in experiment [6] (setting [13]) it was 5; in [6] (setting [23]), 10; in experiment [6] (setting [14]), 15. The results for the “Plant response rating: Wheat, Spring” value in experiment [7] (setting [20]), in experiment [7] (setting [21]) and in experiment [7] (setting [22]) were 15, 20 and 25, respectively. Moreover, the “Plant response rating, Wheat, Spring” value stood at 10 in [7] (setting [17]); 0 in experiment [7] (setting [12]); 0 in experiment [7] (setting [13]); 0 in experiment [7] (setting [23]); 5 in [7] (setting [14]). For the same compound, the “Plant response rating: Oilseed Rape” value in [8] (setting [20]), in experiment [8] (setting [21]) and in experiment [8] (setting [22]) was 100 each time. Also, the “Plant response rating, Oilseed Rape” value is on record as 100 in experiment [8] (setting [17]); 0 in [8] (setting [12]); 0 in experiment [8] (setting [13]); 85 in experiment [8] (setting [23]); 100 in experiment [8] (setting [14]). Moreover, the “Plant response rating: Chamomile” value in experiment [9] (setting [20]) was 70; in experiment [9] (setting [21]), 75; in experiment [9] (setting [22]), 100. In addition, the “Plant response rating, Chamomile” value is 50 in experiment [9] (setting [17]); 10 in experiment [9] (setting [12]); 55 in [9] (setting [13]); 100 in experiment [9] (setting [23]); 100 in experiment [9] (setting [14]).
